Test results as given in patent US20150359757A1, “A METHOD FOR IMPROVING THE WELLBEING OF AN ANIMAL USING A COMPOSITION INCLUDING VITAMIN K” (priority 2013, published 2015).

How the values were obtained:
[1] = complete feed formulation of multivitamins, choline chloride and trace mineral premix; room temperature; 4 months; cited from earlier work
laying birds = assay: Old laying birds feeding experiment, Example 14; format: in vivo
Experimental: An experiment was conducted with old laying birds aged 21 weeks. 20,000 birds were given 580 mg formulated vitamin KQ/tonne of food (Example 2), instead of the control diet of 4 gm/tonne Vitamin K3.

animals = conditions: cited from earlier work
layer hens = assay: Caged layer fatigue, X-ray bone density in layer hens, Example 12; format: in vivo
prothrombin synthesis = conditions: in animals; cited from earlier work
turkeys = assay: Turkey feeding experiment, Example 8; format: in vivo
Experimental: An experiment was conducted in turkeys. In this experiment all diets used in this study were identical in nutrients, the only difference being that the control diets contained 4 gm/tonne K3 and the experimental diet contained the formulated vitamin KQ at 580 mg/tonne or per 1000 L.
Three groups of 5000 turkeys (15000 turkeys per farm) were used. In the control groups 1 and 3 were fed Vitamin K3 (4 gm/tonne of food). Experimental group 2 was fed Vitamin KQ (580 mg formulated K1/K2/Example 2/tonne of food). 200 turkeys from each group were then weighed at 10 weeks.

chickens (broilers) = assay: Broiler chicken feeding experiment, Example 11; format: in vivo
Experimental: An experiment was conducted with chickens (broilers). 41,000 chickens were in a control group and were fed 4 gm/tonne vitamin K3. 41,000 thickens were in an experimental group and fed on experimental diet of 580 mg of Vitamin KQ (Example 2) formulated per tonne of food. Results were determined after the chickens were 30 days old.

ducks = assay: Duck rearing/fattening trial, Example 16; format: in vivo; conditions: up until the 10th week, KQ 580 mg or K3 4 gm per 1000 L water
Experimental: An experiment was conducted with ducks. In the duck's rearing/fattening a similar experience was found as with chickens and turkeys with respect to observations of weight, welfare and behaviour. Duration of trial: 16 weeks • Age: Supplemented from day 7 onwards • Amount: 7,500 birds • Experimental Group: 3,500 birds • Control Group: 4,000 birds • Dosage: Treatment 580 mg KQ per 1000 L water (Example 2). Control 4 gm vitamin K3 per 1000 L water • Dosage given for 24 hours 3× per week.

[2] = system: calcium transfer from luman-blood; conditions: chickens, 2.5 umole of menadione/kg (430 ugK3/Kg bwt.); cited from earlier work
chickens = assay: Chickens hatched from breeder layer eggs, bone density and bone ash, Example 15; format: in vivo
Experimental: An experiment was conducted with laying birds and broilers: • A) Chickens hatched from the breeder layer eggs (fed 580 mg/tonne of formulated vitamin KQ) contained 50-100 ug Vitamin K1 per egg from day 1 (Example 2); • B) Chickens hatched from the breeder layer eggs were fed 4 gm/tonne vitamin K3 from day 1 contained 4-10 ug vitamin K1 per egg from day 1.
1000 chickens from each group were slaughtered at day 35 and X-rayed.

[3] = system: carboxylation of endogenous precursors; conditions: cited from earlier work
[4] = from vegetable sources, humans; cited from earlier work

Compound: CC1(S(=O)(=O)O)CC(=O)c2ccccc2C1=O.Cc1cc(C)[nH]c(=O)n1 (stereo not drawn) [MPB, menadione dimethyl-pyrimidol bisulphite]
- retained (stability) [1]: 57%

Compound: CC1(S(=O)(=O)[O-])CC(=O)c2ccccc2C1=O.[Na+] (stereo not drawn) [MSB, menadione sodium bisulphite]
- retained (stability) [1]: 33%

Compound: CC1=CC(=O)c2ccccc2C1=O [Vitamin K3, menadione]
- eggs per day (laying birds; 20,000 birds, KQ 580 mg/tonne, K3 4 gm/tonne of food): 14,800 eggs per day
- % eggs layed (laying birds; age of layers 2 weeks): 92%
- % eggs layed (laying birds; age of layers 21 weeks): 92%
- % eggs layed (laying birds; age of layers 60 weeks): 74%
- % eggs layed (laying birds; age of layers 90 weeks): 54%
- dose at which toxic levels are reached (animals; animals): 0.5 mg/kg
- more toxic than vitamin K1 (animals; relative to vitamin K1): at least 50 ×
- Change % of RBAE bone density (layer hens; Day 27 to Day 35, 250 ug/bird/day): −5.4%
- effect on bone growth / strength (observation) (layer hens; layer hens): deceased bone growth
- effect on caged layer fatigue (loss of bone density) (layer hens; layer hens): failed to prevent the disease
- bone density as RBAE (Radiographic bone aluminium equivalents), Day 27 (layer hens; layer hens, 250 ug/bird/day, Day 27): 3.85 mm
- bone density as RBAE (Radiographic bone aluminium equivalents), Day 35 (layer hens; layer hens, 250 ug/bird/day, Day 35): 3.64 mm
- effect on prothrombin synthesis, times lower (prothrombin synthesis): approximately 100 times
- E. coli / colibacillus infection (observation) (turkeys; turkeys): colibacillus infection was evident
- weight deviation (turkeys; turkeys at 10 weeks, K3 4 gm/tonne of food): up to 1.2 kg
- average weight (turkeys; turkeys at 10 weeks, KQ 580 mg/tonne, K3 4 gm/tonne of food): 6.97 kg
- Dropsy (chickens (broilers); broilers): 0.36%
- Marketable animals according an official poultry meat inspector (chickens (broilers); broilers): 95.25%
- Marketable feet A quality (chickens (broilers); broilers): 81.37%
- Skin infections (chickens (broilers); broilers): 3.65%
- birds with broken bones at slaughter (chickens (broilers); of 41,000 birds slaughtered): 3200 birds
- feather picking (observation) (ducks): extensive feather picking
- duration of inhibition of calcium transfer [2]: 6 to 10 h
- time to inhibition of calcium transfer [2]: ≤ 30 min
- bone density as RBAE (Radiographic bone aluminium equivalents), Day 35 (chickens; chickens hatched from breeder layer eggs, slaughtered at day 35, K3 4 gm/tonne, KQ 580 mg/tonne of feed): 3.64 mm
- Bone Ash (chickens; chickens slaughtered at day 35): 35%
- bone ash relative to that of Vitamin KQ (chickens; day 35): 83%
- bone density relative to that of Vitamin KQ (chickens; day 35): 60%

Compound: CC1=C(C/C=C(\C)CCC[C@H](C)CCC[C@H](C)CCCC(C)C)C(=O)c2ccccc2C1=O [vitamin K1, phylloquinone]
- relative activity versus menadione Vitamin K3 [3]: 4 times
- dose consumed that does not result in any toxicity (animals; animals): 25 gm/kg
- bioavailability [4]: 4.7-15%
